Results published in article PMC9267128, “New 2-[(4-Amino-6-N-substituted-1,3,5-triazin-2-yl)methylthio]-N-(imidazolidin-2-ylidene)-4-chloro-5-methylbenzenesulfonamide Derivatives, Design, Synthesis and Anticancer Evaluation” (International Journal of Molecular Sciences, 2022).

Columns and labels:
HeLa (cervical cancer) = assay: MTT cell viability assay, HeLa; assay type: cell-based, human; details: for IC50: Homo sapiens, HeLa, MTT assay, 72 h of incubation; for Selectivity Index (SI) HeLa: IC50 value toward HaCaT cells/IC50 value toward HeLa
In short: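 HCT-116 and HeLa cells in DMEM/10% FBS exposed 72 h to compounds over 1–100 µM. Viability by MTT (0.5 mg/mL, 2 h, 37 °C), formazan dissolved in DMSO and read at 550 nm; mean ± SD of at least three independent experiments.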

[1] = system: T47D (breast cancer cell line); assay: MTT assay, mutant p53 breast cancer cells T47D; assay type: cell-based; details: Homo sapiens, T47D, 72 h of incubation
Description: (§1) Thus, the ability of the selected compounds to exert cytotoxic activity toward cell lines harboring mutant p53 was examined. Compounds displaying a high selectivity index (Table 6) were selected for the analysis of their activity toward ovarian and breast cancer cells with wild-type p53 (A2780, MCF-7) and mutant p53 (SKOV-3, T47D).
(§2) Cell viability was examined using the MTT [3-(4,5-dimethylthiazol-2-yl)-2,5-diphenyltetrazolium bromide] assay. Cells were seeded in 96-well plates at a density of 3 × 10^3 cells/well and treated for 72 h with the tested compounds in the concentration range of 1–100 µM. Then, MTT (0.5 mg/mL) was added to the medium and cells were further incubated for 2 h at 37 °C. In the next stage, cells were lysed with DMSO and the absorbance of the formazan solution was measured at 550 nm with a plate reader (1420 multilabel counter, Victor, Jügesheim, Germany). The experiment was performed in triplicate. Values are expressed as the mean ± SD of at least three independent experiments. Cisplatin was used as a positive control.
(§3) Compounds 48, 62, 134, 138 and 140 were further examined toward MCF7 (breast cancer cell line, ATCC, HTB-22), T47D (breast cancer cell line, DSMZ ACC 739), A2780 (ovarian carcinoma cell line, ECACC, 93112519), and SKOV3 (ovarian carcinoma cell line, ATCC, HTB-77) cells. Cells were grown in Dulbecco’s Modified Eagle Medium (DMEM) supplemented with 10% fetal bovine serum (Thermo Fisher Scientific).

MDM2-p53 interactions = assay: Western blot of MDM2 and p53 protein levels in MCF-7 cells; assay type: cell-based, human; details: 4 µM and 10 µM, 24-h incubation
Description: Thus, the effects of the examined compounds on the inhibition of MDM2-p53 interactions were examined. MDM2 and p53 protein levels were determined with Western blot analysis after the treatment of MCF-7 cells with compounds selected for their high selectivity index (48, 62, 134, 138, and 140). Compounds were examined at different concentrations (4 µM and 10 µM) following a 24-h incubation (Figure 7).
Proteins were transferred to an Immobilon-P PVDF membrane (Merck Millipore, Burlington, MA, USA). The membranes were incubated for 1 h using 5% low-fat milk solution in 1× TBS (50 mM Tris-Cl, pH 7.5, 150 mM NaCl) as a blocking buffer and then overnight at 4 °C in the same blocking solution containing one of the following antibodies: anti-MDM2 (rabbit, Sigma-Aldrich AB-166, Burlington, MA, USA), anti-p53 (rabbit, Sigma-Aldrich S15) or α-tubulin (rabbit, 11H10, Cell Signaling, Danvers, MA, USA). After washing (3 × 10 min in TBS), membranes were incubated for 2 h in room temperature with the adequate HRP-conjugated secondary antibody: goat anti-rabbit IgG (1:5000, Abcam, Cambridge, UK; cat. 97051). Membranes were developed using an HRP detection kit WesternBright Quantum (Advansta, San Jose, CA, USA; cat. K-12042).

[2] = system: SKOV3 (ovarian carcinoma cell line); assay: MTT assay, mutant p53 ovarian cancer cells SKOV-3; assay type: cell-based; details: Homo sapiens, SK-OV-3, 72 h of incubation
Description: as §1, §2, §3

[3] = system: HaCaT (human keratinocyte cell line); assay: MTT cell viability assay, non-cancerous HaCaT; assay type: cell-based; details: Homo sapiens, HaCaT, 72 h, 72 h of incubation, non-cancerous keratinocytes
In short: (§4)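 Cells in DMEM with 10% FBS, 3 × 10^3 per well, exposed to compounds at 1–100 µM for 72 h at 37 °C. MTT at 0.5 mg/mL for 2 h, formazan dissolved in DMSO and read at 550 nm. Mean ± SD of at least three independent experiments, each in triplicate.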

MCF-7 (breast cancer) = assay: MTT cell viability assay, MCF-7; assay type: cell-based, human; details: for IC50: Homo sapiens, MCF7, 72 h, MTT assay, 72 h of incubation; for Selectivity Index (SI) MCF-7: IC50 value toward HaCaT cells/IC50 value toward MCF-7
In short: as §4

[4] = system: MCF7 (breast cancer cell line, ATCC, HTB-22); assay: MTT assay, wild-type p53 breast cancer cells MCF-7 (Table 11); assay type: cell-based, human; details: Homo sapiens, MCF7; 72 h of incubation, wild-type p53, second determination
Description: as §1, §2, §3

MCF-7 cells = assay: Cell cycle analysis by flow cytometry (PI staining) in MCF-7 cells; assay type: cell-based, human; details: 48 h; for G0/G1 phase population of the cell cycle: MCF-7, 10 µM; for sub-G1 population of the cell cycle: MCF-7, 5, 10, 25 µM
Description: P53 controls cell proliferation through the regulation of the cell cycle. In order to determine p53-independent cell cycle arrest, the influence of selected compounds on the cell cycle distribution in MCF-7 cells was analyzed. Cells were treated with a concentration range of two selected compounds (140 and 48) for 48 h. Cell cycle distribution was analyzed with flow cytometry. […] Compound 140 at the lower concentration of 10 µM increased the G0/G1 population, whereas at the higher examined concentration of 25 µM, an increase in the G2/M phase of the cell cycle was observed.
Cell cycle distribution was analyzed with flow cytometry analysis with PI staining. MCF-7 cells were treated with compounds 48 and 140 (5, 10, 25 µM) for 48 h. Following treatment, the cells were collected and fixed in cold 70% ethanol for 24 h. The fixed cells were washed with PBS and incubated with 100 µg/mL RNAse (Invitrogen, Germany) and stained with 10 µg/mL PI (Invitrogen, Germany) for 30 min at RT. A total of 10^4 cells were examined with a FACSCalibur cytometer (BD) and data was analyzed with Flowing software (version 2.5).

**Q.** What does the source list for Cc1cc(S(=O)(=O)N=C2NCCN2Cc2ccccc2)c(SCc2nc(N)nc(N3CCc4ccccc43)n2)cc1Cl [Compound 48]?
**A.** IC50 (HeLa (cervical cancer)): 25 ± 0.3 µM; Selectivity Index (SI) HeLa (HeLa (cervical cancer)): 1.3; IC50 [1]: 4.8 ± 0.1 µM; MDM2 and p53 protein levels (MDM2-p53 interactions): no changes; IC50 [2]: 8.1 ± 0.1 µM; IC50 [3]: 33 ± 1 µM; IC50 (MCF-7 (breast cancer)): 7 ± 0.2 µM; Selectivity Index (SI) MCF-7 (MCF-7 (breast cancer)): 4.7; IC50 [4]: 7.8 ± 0.1 µM; G0/G1 phase population of the cell cycle (MCF-7 cells): significant increase; sub-G1 population of the cell cycle (MCF-7 cells): concentration-dependent increase

**Q.** Which results are given for Cc1cc(S(=O)(=O)N=C2NCCN2Cc2ccc(C(F)(F)F)cc2)c(SCc2nc(N)nc(N3CCN(Cc4ccccc4)CC3)n2)cc1Cl [Compound 140]?
**A.** IC50 (HeLa (cervical cancer)): 8 ± 0.5 µM; Selectivity Index (SI) HeLa (HeLa (cervical cancer)): 2.7; IC50 [1]: 5.3 ± 0.1 µM; MDM2 and p53 protein levels (MDM2-p53 interactions): no changes; IC50 [2]: 6.6 ± 0.1 µM; IC50 [3]: 22 ± 1 µM; IC50 (MCF-7 (breast cancer)): 10 ± 0.2 µM; Selectivity Index (SI) MCF-7 (MCF-7 (breast cancer)): 2.2; IC50 [4]: 6.9 ± 0.1 µM; G0/G1 phase population of the cell cycle (MCF-7 cells): increased; G2/M phase population of the cell cycle (MCF-7 cells; MCF-7, 25 µM): increase; sub-G1 population of the cell cycle (MCF-7 cells): concentration-dependent increase
